How the values were obtained:
[1] = test system: oxido-squalene cyclase; assay: In vitro test to measure inhibition of microsomal oxido-squalene cyclase; format: biochemical; settings: 1 μM; rat liver microsomes
Protocol: (a) In vitro Test to Measure Inhibition of Oxido-squalene Cyclase
This test measures the inhibition of microsomal oxido-squalene cyclase in vitro by compounds at set concentrations in the incubation medium.
Microsomes are prepared from rat liver according to methods known in the art, for example, the method described in published European Patent Application No 324,421 and stored in liquid nitrogen prior to assay. Assay vials are kept at 37° C. throughout the incubation. The microsomes typically contain 15-20 mg of protein per ml of microsomes. For assay, 1 ml of microsomes are diluted by the addition of 722 μl of 50 mM phosphate buffer pH 7.4.
Phosphate buffered Tween 80 (polyoxyethylene sorbitan […]) is prepared by adding 0.1 g Tween 80 to 100 ml of 50 mM phosphate buffer.
A stock solution of oxido-squalene is made up as a solution in ethanol (0.65 mg.ml^-1). 18 μl of radio-labelled oxido-squalene (1 μCi.ml^-1) is evaporated to dryness under a stream of nitrogen and redissolved in 1 ml of ethanol and 1 ml of the stock solution of oxido-squalene is added.
The test compound is dissolved in dimethyl sulphoxide to give a 10^-4 M stock solution. […]
The samples are then placed in a water bath at 80° C. for 2 hours to saponify. […] Reaction rate is measured as the conversion of oxido-squalene to lanosterol, and the effects of test compounds are expressed as an inhibition of this process.

[2] = test system: oxido-squalene cyclase; assay: In vivo test to measure inhibition of oxido-squalene cyclase / cholesterol biosynthesis in the rat; settings: 2 mg/kg, oral, female rats
Protocol: (b) In vivo Test to Measure Inhibition of Oxido-Squalene Cyclase
The ability of a compound to inhibit oxido-squalene cyclase and/or inhibit cholesterol biosynthesis may be assessed by a routine laboratory procedure carried out in the rat. The test involves administration of the compound to rats on a reversed lighting regimen. Female rats (35-55 g) are housed in reverse lighting conditions (red light from 0200 h-1400 h) for a period of about 2 weeks prior to test. Animals are allowed free access to chow and drinking water throughout this period. At test, animals should weigh 100-140 g. The rats are dosed orally, with the compound (typically 10-50 mg/kg) formulated in a polyethylene glycol/hydroxypropylmethyl cellulose mix. After 1 hour the rats are given […] sodium mevalonate (15 μCi/kg) intraperitoneally. Two hours after administration of the compound the rats are terminated and a piece of liver removed and weighed. The tissue is saponified at 80° C. for 2 hours in an ethaniolic/potassium hydroxide solution (80% w/v aqueous KOH diluted 1:10 with ethanol). Water (2 ml) is added and the mixture extracted with iso-hexane (2×5 ml). The organic extracts are combined, evaporated to dryness under a stream of nitrogen and the residue is dissolved in a mixture of acetonitrile/iso-propanol (300 μl). […] The radio-label content of each fraction is assessed using a radio chemical flow detector. […]

inhibition of oxido-squalene cyclase (conversion of oxido-squalene to lanosterol) [1]	Structure (SMILES)	inhibition of cholesterol biosynthesis [2]
100%	O=S(=O)(c1ccc(Br)cc1)N1CCN(c2ccncc2)CC1 [Example 25, 1-(4-pyridyl)-4-(4-bromophenylsulphonyl)piperazine]	–
–	Fc1cc(Br)ccc1CN1CCN(c2ccncc2)CC1 [Example 18, 1-(4-pyridyl)-4-(2-fluoro-4-bromobenzyl)piperazine]	59%
–	N#Cc1ccc(S(=O)(=O)Nc2ccc(N3CCN(c4ccncc4)CC3)cc2)cc1 [Example 27, 1-(4-pyridyl)-4-(4-cyanophenylsulphonamidophenyl)piperazine]	70%
